Values joined by “and” are separate entries in the source; they are usually repeats but may differ in a detail not shown here. Equal entries are not always repeated.
Columns and labels:
[1] = Treatment of sulfides in municipal wastewater with ferric chelants and hydrogen peroxide; details: for sulfide reduction after 15 minutes: 2.5:1.0 peroxide to sulfide, 105.8 ppm hydrogen peroxide, 20 ppm chelant where added, peroxide alone averaged; for sulfide treatment after 15 minutes: 37.8 ppm hydrogen peroxide, 12 ppm chelant where added; for Percentage of Sulfide Treated, Dose 1 12 ppm Chelant 37.8 ppm H2O2 / Percentage of Sulfide Treated, Dose 2 6 ppm Chelant 37.8 ppm H2O2 / Percentage of Sulfide Treated, Dose 1 20 ppm Chelant 105.8 ppm H2O2 / Percentage of Sulfide Treated, Dose 2 10 ppm Chelant 105.8 ppm H2O2: after 30 minutes; for Percentage of Sulfide Treated, Dose 1 12 ppm Chelant 37.8 ppm H2O2 / Percentage of Sulfide Treated, Dose 2 6 ppm Chelant 37.8 ppm H2O2: 1.5:1.0 ratio of peroxide to sulfide; for Percentage of Sulfide Treated, Dose 1 20 ppm Chelant 105.8 ppm H2O2 / Percentage of Sulfide Treated, Dose 2 10 ppm Chelant 105.8 ppm H2O2: 2.5:1.0 ratio of peroxide to sulfide; for sulfide treatment compared with hydrogen peroxide alone, in words: over 30 minutes of treatment; for Sulfide Remaining, Dose 1 12 ppm Chelant / Sulfide Remaining, Dose 2 6 ppm Chelant: 37.8 ppm H2O2, start 25.4 ppm sulfide; for Sulfide Remaining, Dose 1 20 ppm Chelant / Sulfide Remaining, Dose 2 10 ppm Chelant: 105.8 ppm H2O2, start 42.3 ppm sulfide
heterotrophic bacteria = assay: Disinfection of wastewater with chelated iron compounds, total heterotrophic bacteria counts; format: cell-based; details: for Test 1 CFUs/ml, 19.8 ppm H2O2 6 ppm Fe-Chelant / Test 2 CFUs/ml, 39.6 ppm H2O2 12 ppm Fe-Chelant / Test 3 CFUs/ml, 12 ppm Fe-Chelant: 30 minutes, raw average 18,188 CFUs; for Test 3 CFUs/ml, 12 ppm Fe-Chelant: chelant alone, no H2O2; for disinfection effect, in words: compared with hydrogen peroxide alone
Method: A 10 gallon sample of wastewater from the Massaponax Wastewater Plant was collected and allowed to sit undisturbed for thirty minutes. The clarified supernatant was then pored off of the top of the settled solids within the sample. The supernatant was then mixed and four samples were collected to determine untreated heterotrophic bacteria counts. […] were dissolved in distilled water at 0.4334M. Ferric chloride was added in amounts to achieve saturation of chelant sites on the respective chelants. […] Twenty individual liter samples of supernatant were then decanted from the well-mixed wastewater sample for testing. Four chelated iron products with peroxide were tested at two test concentrations and compared to samples receiving peroxide only and iron chelate only. […] Individual samples were dosed with the respective additives, mixed with a magnetic stir bar and allowed to react for 30 minutes. Samples were then decanted to sterile sample containers containing sodium thiosulfate to stop the oxidation process and preserve the sample. Samples were then placed in a refrigerator until all samples were finished. Samples were packaged in a standard cooler with ice packs and sent via overnite delivery to ProChem Labs in Lynchburg, Va. for analysis for total heterotrophic bacteria counts.

[2] = Treatment of sulfides in municipal wastewater with ferric chelants and ozone; details: 4 ppm ferric chelant where added; for Overall total percentage of sulfide reduction: ozone; for sulfide remaining: ozone at ~13.4 ppm
[3] = Series One, contact time 5 minutes
[4] = Series One, contact time 15 minutes
[5] = Series One, contact time 30 minutes
[6] = Series One, no H2O2, start 25.4 ppm sulfide, contact time 30 minutes
[7] = Series Two, 20 ppm chelant, no H2O2, start 42.3 ppm sulfide, contact time 30 minutes
[8] = Series Two, contact time 5 minutes
[9] = Series Two, contact time 15 minutes
[10] = Series Two, contact time 30 minutes
[11] = Series One, contact time 5 minutes, listed as Ferric NTA
[12] = start 13.70, contact time 5 minutes
[13] = start 13.70, contact time 10 minutes
[14] = start 13.70, contact time 20 minutes

Compound	Percentage of Sulfide Treated, Dose 1 12 ppm Chelant 37.8 ppm H2O2 [1]	Percentage of Sulfide Treated, Dose 2 6 ppm Chelant 37.8 ppm H2O2 [1]	Percentage of Sulfide Treated, Dose 1 20 ppm Chelant 105.8 ppm H2O2 [1]	Percentage of Sulfide Treated, Dose 2 10 ppm Chelant 105.8 ppm H2O2 [1]	sulfide treatment compared with hydrogen peroxide alone, in words [1]	Test 1 CFUs/ml, 19.8 ppm H2O2 6 ppm Fe-Chelant (heterotrophic bacteria)	Test 2 CFUs/ml, 39.6 ppm H2O2 12 ppm Fe-Chelant (heterotrophic bacteria)	Test 3 CFUs/ml, 12 ppm Fe-Chelant (heterotrophic bacteria)	disinfection effect, in words (heterotrophic bacteria)	Overall total percentage of sulfide reduction [2]	Sulfide Remaining, Dose 1 12 ppm Chelant [1, 3]	Sulfide Remaining, Dose 2 6 ppm Chelant [1, 3]	Sulfide Remaining, Dose 1 12 ppm Chelant [1, 4]	Sulfide Remaining, Dose 4 Chelant Only [1, 7]	Sulfide Remaining, Dose 1 20 ppm Chelant [1, 8]	Sulfide Remaining, Dose 2 10 ppm Chelant [1, 8]	Sulfide Remaining, Dose 1 20 ppm Chelant [1, 9]	Sulfide Remaining, Dose 2 10 ppm Chelant [1, 9]	Sulfide Remaining, Dose 1 20 ppm Chelant [1, 10]	Sulfide Remaining, Dose 2 10 ppm Chelant [1, 10]	other results
O=C([O-])CN(CCN(CC(=O)[O-])CC(=O)[O-])CC(=O)[O-].[Fe+3] [Fe-EDTA]	68.5	64.2	87.5	83.7	noticeably better	360 CFUs/ml	59 CFUs/ml	18,200 CFUs/ml	very little effect on viable cells beyond that exhibited by hydrogen peroxide alone	64%	–	–	–	–	–	–	–	–	–	–	sulfide reduction after 15 minutes [1]: 60%; sulfide treatment after 15 minutes [1]: 61%; Overall total percentage of sulfide reduction ([2]; listed as ferric EDTA): 64%
O=C([O-])CN(CCO)CC(=O)[O-].[Fe+3] [Fe-HEIDA]	44.1	41.3	69.5	66.9	did not perform well	1350 CFUs/ml	84 CFUs/ml	16,700 CFUs/ml	very little effect on viable cells beyond that exhibited by hydrogen peroxide alone	60%	–	–	–	–	–	–	–	–	–	–	Overall total percentage of sulfide reduction ([2]; listed as ferric HEIDA): 60%
O=C([O-])CC(O)(CC(=O)[O-])C(=O)[O-].[Fe+3] [Ferric Citrate]	58.7	51.2	66.2	69.5	–	–	–	–	–	–	17.8 ppm	18.1 ppm	14.1 ppm	42.0 ppm	30.1 ppm	29.9 ppm	19.6 ppm	20.2 ppm	14.3 ppm	12.9 ppm	Sulfide Remaining, Dose 2 6 ppm Chelant [1, 4]: 15.8 ppm; Sulfide Remaining, Dose 1 12 ppm Chelant [1, 5]: 10.5 ppm; Sulfide Remaining, Dose 2 6 ppm Chelant [1, 5]: 12.4 ppm; Sulfide Remaining, Dose 4 Chelant Only [1, 6]: 25.0 ppm
Ferric Ascorbate	62.2	59.0	74.5	71.9	some modest improvement over hydrogen peroxide treatment alone	–	–	–	–	–	16.6 ppm	17.2 ppm	11.8 ppm	41.8 ppm	26.9 ppm	27.2 ppm	17.7 ppm	19.7 ppm	10.8 ppm	11.9 ppm	Sulfide Remaining, Dose 2 6 ppm Chelant [1, 4]: 12.4 ppm; Sulfide Remaining, Dose 1 12 ppm Chelant [1, 5]: 9.6 ppm; Sulfide Remaining, Dose 2 6 ppm Chelant [1, 5]: 10.4 ppm; Sulfide Remaining, Dose 4 Chelant Only [1, 6]: 24.6 ppm
Ferric Gallate	59.1	55.9	68.7	69.0	did not perform well overall	–	–	–	–	–	18.4 ppm	18.0 ppm	14.0 ppm	43.0 ppm	29.2 ppm	27.8 ppm	20.2 ppm	22.2 ppm	13.2 ppm	13.1 ppm	Sulfide Remaining, Dose 2 6 ppm Chelant [1, 4]: 13.6 ppm; Sulfide Remaining, Dose 1 12 ppm Chelant [1, 5]: 10.4 ppm; Sulfide Remaining, Dose 2 6 ppm Chelant [1, 5]: 11.2 ppm; Sulfide Remaining, Dose 4 Chelant Only [1, 6]: 24.7 ppm
O=C([O-])CN(CC(=O)[O-])CC(=O)[O-].[Fe+3] [Fe-NTA]	78.3	68.9	93.4	90.0	noticeably better	370 CFUs/ml	75 CFUs/ml	18,300 CFUs/ml	very little effect on viable cells beyond that exhibited by hydrogen peroxide alone	91%	–	–	–	41.0 ppm	23.3 ppm	26.7 ppm	12.6 ppm	16.3 ppm	2.8 ppm	4.2 ppm	sulfide reduction after 15 minutes [1]: 70.2%; sulfide treatment after 15 minutes [1]: 73%; Sulfide Remaining, Dose 1 12 ppm Chelant [1, 11]: 15.2 ppm and 20.0 ppm; Sulfide Remaining, Dose 2 6 ppm Chelant [1, 11]: 15.9 ppm and 20.3 ppm; Sulfide Remaining, Dose 2 6 ppm Chelant ([1]; Series One, contact time 15 minutes, listed as Ferric NTA): 12.6 ppm and 16.4 ppm; Sulfide Remaining, Dose 2 6 ppm Chelant ([1]; Series One, contact time 30 minutes, listed as Ferric NTA): 7.9 ppm and 14.9 ppm; Sulfide Remaining, Dose 4 Chelant Only ([1]; Series One, no H2O2, start 25.4 ppm sulfide, contact time 30 minutes, listed as Ferric NTA): 24.6 ppm and 25.2 ppm; sulfide remaining [2, 12]: 3.40 ppm; sulfide remaining [2, 13]: 1.90 ppm; sulfide remaining [2, 14]: 1.30 ppm; Overall total percentage of sulfide reduction ([2]; listed as ferric NTA): 91%
O=[O+][O-] [Ozone only, Ozone]	–	–	–	–	–	–	–	–	–	46%	–	–	–	–	–	–	–	–	–	–	sulfide remaining [2, 12]: 8.05 ppm; sulfide remaining [2, 13]: 7.50 ppm; sulfide remaining [2, 14]: 7.40 ppm

Source: patent publication US9701556B1, “Compositions, methods, and systems for reducing contamination” (priority 2004, dated 2017)
